The source of these data is PMC10042540, “Targeting oncogenic KRasG13C with nucleotide-based covalent inhibitors” (eLife, 2023).

The test system of test [1] is farnesyltransferase (FTase). As to the kind of experiment: In vitro farnesylation. The following applies: full-length protein, FPP, ESI-MS. The test is classed as biochemical. As to the method:
50 µM of full-length KRas protein was mixed with 250 µM farnesyl pyrophosphate (FPP) and 10 µM farnesyltransferase (FTase). After incubation at room temperature for 1 hr the mixture was centrifugated at 14,000 rpm for 10 min at 4 °C and analyzed via ESI-MS (Figure 3—figure supplement 4).

The subject of test [2] is Ras pathway (pcRaf, pAkt, pErk, pS6). As to the kind of experiment: Electroporation into HeLa cells, western blot of downstream signalling. It is filed as cell-based, human. The note with it: electroporation of 50-300 µg protein. In a few lines: (§1)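 HeLa cells electroporated (2×35 ms, 1000 V) with 0–300 µg recombinant full-length KRas WT or G13C constructs, washed, then recovered for 24 h at 37 °C. Lysates (10 µg protein) analysed by SDS-PAGE and fluorescent western blotting, with protein levels quantified from blot signal.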

Test [3] concerns SOS. Description: Guanine nucleotide-exchange factor assay (mantdGDP fluorescence). The test is classed as biochemical. The protocol: SOS-catalysed nucleotide exchange was monitored at 25 °C in a FluoroMax-3 spectrofluorometer (excitation at 360 nm, emission at 440 nm) in 20 mM HEPES (pH 7.5), 100 mM NaCl, 2 mM MgCl2, and 1 mM TCEP. 5 µM KRas1-169 was mixed with 10 µM mantdGDP and subsequently with different concentrations of SOS (0.25 µM and 0.5 µM) (Figure 3A; Figure 3—figure supplement 1).

Test [4] has as its system GST-tagged cRafRBD (amino acids 51–131). As to the kind of experiment: Effector binding (pull-down experiments). The note with it: in the presence of GppNHp alone or in combination with SOS. The protocol: Pull-down experiments were performed in 20 mM HEPES pH 7.5, 50 mM NaCl and 2 mM MgCl2. […] Afterwards, 50 µL glutathione magnetic beads were added to each sample for 30 min. After washing the beads with 500 µL buffer, the beads were settled with a magnet and the supernatant was carefully removed. The beads were resuspended in 50 µL of 4xSDS-loading buffer and visualized via SDS-PAGE (Figure 3—figure supplement 3).

In test [5] the test system is pS6S235/236. As to the kind of experiment: Electroporation into HeLa cells, western blot quantification. The test is classed as cell-based, human. The note with it: for pS6 mean fold change: mean of cell lysates. In a few lines:
as §1
On the technique in general: Immunoblotting shows a protein as a band on a membrane.

As to “KRasG13C-edaGDP: KRasG13C covalently locked with edaGDP at Cys13”, the in vitro farnesylation entry in test [1] is listed as “fully farnesylated”. Besides, the “downstream signalling (pcRaf, pAkt, pErk, pS6)” value in test [2] is recorded as “unable to induce these effects”. In test [3] (5 µM KRas1-169, 10 µM mantdGDP, 0.25 or 0.5 µM SOS), the SOS-catalysed nucleotide exchange result is recorded as “unable to do so”. Moreover, in test [3] (absence of SOS), the “intrinsic nucleotide exchange rate” value is recorded as “abrogated”. The “binding to RafRBD (pull-down)” value in test [4] is “neither in the presence of GppNHp nor of additional SOS able to bind to the RafRBD”. The pS6 fold change amounted to 0.80 in test [5] (50 µg, Cell lysate 1); 1.31 in test [5] (50 µg, Cell lysate 2); 0.76 in test [5] (50 µg, Cell lysate 3); 0.91 in test [5] (100 µg, Cell lysate 1); 1.13 in test [5] (100 µg, Cell lysate 2); 0.75 in test [5] (100 µg, Cell lysate 3). Moreover, the pS6 fold change came to 1.23 in test [5] (200 µg, Cell lysate 1); 1.03 in test [5] (200 µg, Cell lysate 2); 0.88 in test [5] (200 µg, Cell lysate 3); 0.98 in test [5] (300 µg, Cell lysate 1); 0.98 in test [5] (300 µg, Cell lysate 2); 0.76 in test [5] (300 µg, Cell lysate 3). For the same substance, the “pS6 mean fold change” value came to 0.96 in test [5] (50 µg), 0.93 in test [5] (100 µg), 1.05 in test [5] (200 µg) and 0.91 in test [5] (300 µg).
